{"source": "paper PMC11992618", "about": "“Development of cyclopeptide inhibitors specifically disrupting FXR–coactivator interaction in the intestine as a novel therapeutic strategy for MASH” (Life Metabolism, 2025)", "key": {"[1]": {"biological_target": "T1, human FXR alpha (hFXRα)-LBD / NcoR2 peptide (Homo sapiens, UniProt Q96RI1)", "T1 construct": "100 nmol/L 6*His-hFXRα-LBD and 100 nmol/L biotinylated co-factor peptide", "T1 sequence (Q96RI1 262-486 limits assumed)": "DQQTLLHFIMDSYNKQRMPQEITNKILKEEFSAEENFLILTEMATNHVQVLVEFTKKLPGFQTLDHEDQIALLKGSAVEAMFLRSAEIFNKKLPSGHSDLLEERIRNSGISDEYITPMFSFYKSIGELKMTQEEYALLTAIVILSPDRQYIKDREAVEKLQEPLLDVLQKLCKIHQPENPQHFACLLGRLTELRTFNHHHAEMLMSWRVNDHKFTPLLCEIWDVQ", "experiment": "AlphaScreen assay, recruitment of corepressor peptide NcoR2 to His-hFXRα-LBD", "assay_type": "biochemical", "conditions": "DC646 at 11 μmol/L, Ivermectin 5 μmol/L", "protocol": "An AlphaScreen technology-based assay was performed according to the manufacturer’s instructions with a minor revision. Briefly, the experiment was conducted with compounds at the indicated concentrations, 100 nmol/L 6*His-hFXRα-LBD and 100 nmol/L biotinylated co-factor peptide in the buffer containing 50 mmol/L MOPS, 50 μmol/L CHAPS, 50 mmol/L NaF, and 0.1 mg/mL BSA, pH 7.4. The mixture was incubated with 50 μg/mL nickel acceptor beads and 50 μg/mL streptavidin donor beads in a 384-well plate under green light in the dark at room temperature, before conducting fluorescence measurement with excitation at 680 nm and emission at 550 nm on an Envision microplate analyzer (PE 2102-8340, PerkinElmer Life Sciences)."}, "MCD diet-induced MASH": {"tested_on": "MCD diet-induced MASH", "experiment": "MCD diet-induced MASH mice, long-term model", "assay_type": "in vivo, mouse", "conditions": "oral, 4 weeks", "protocol": "For the long-term MASH model, 8- to 10-week-old male C57BL/6 J mice were fed with an MCS diet or MCD diet for 2 weeks, before the MCD models were administered with vehicle or GUDCA (50 mg/kg), OCA (30 mg/kg), and DC646 (10 mg/kg) for 4 weeks. The serum, liver, and intestine were collected 2 h after the final dosing. Male Fxr^△IE mice (8–10 weeks old) were fed with a GAN diet for 20 weeks and administered with vehicle or DC646 (10 mg/kg) from the 12th week for 8 weeks. The serum, liver, and intestine were collected 2 h after the final dosing.\n(§1) The intestine and liver were frozen in liquid nitrogen and stored at −80°C. RNA was extracted, and complementary DNA was synthesized from 1 μg total RNA. RT-qPCR was performed on a Bio-Rad CFX384 Touch detection system (Bio-Rad). The primer sequences for RT-qPCR are shown in Supplementary Table S5. RNA levels were analyzed by 2-^ΔΔCt, normalized to 18S ribosomal RNA and expressed as fold change relative to the control group.\nHepatic TG and TC, and plasma ALT and AST levels were measured using commercial kits from Nanjing Jiancheng Bioengineering Institute according to the manufacturer’s instructions. To measure hepatic TG contents, liver tissues (~10 mg) were homogenized in 100 μL 1% TritonX-100 and centrifuged at 3000 rpm for 10 min. Supernatants were collected, and 2 μL samples were incubated with 200 μL reaction buffer at 37°C for 10 min. Hepatic TG or TC levels were read at 510 or 500 nm using a microplate reader (Versamax, Molecular Devices) and normalized using the protein concentration. To measure plasma ALT and AST levels, reaction buffer 1 and reaction buffer 2 were mixed at a ratio of 1:1, before adding 2 μL plasma sample and 200 μL mixed reaction buffer in a 96-well plate. The data were acquired using the kinetic mode with an interval of 30 s and 31 total reads at 340 nm using a microplate reader (Versamax, Molecular Devices).\nTissue specimens were fixed in 10% formalin for 12–24 h before being dehydrated and paraffin-embedded. The sections were stained with H&E. The NAS was calculated as a summary score including individual components of steatosis (0–3), lobular inflammation (0–3), and hepatocyte ballooning (0–2) for each liver section by a blinded liver pathologist, and the results were reviewed by a blinded hepatologist according to a previous protocol. To visualize liver fibrosis, paraffin-embedded tissue samples were stained with Sirius Red to characterize the collagen deposition. To visualize lipid accumulation and inflammation in the liver, frozen liver sections were stained with Oil Red O and F4/80, and images were acquired using a Leica DM6B laser microdissection system. At least three discontinuous liver sections were evaluated for each mouse."}, "[2]": {"tested_on": "FXR signaling (Shp) in intestinal organoids", "experiment": "FXR target gene expression in intestinal organoids", "assay_type": "cell-based, mouse", "conditions": "DC646 50 μmol/L, GW4064 10 μmol/L, 24 h", "source_text": "(§2) Intestinal crypts were isolated from 6- to 8-week-old C57BL/6 mice and Fxr^△IE mice as previously described with minor revision. Briefly, the abdomen of the mouse was dissected, and the small intestine was isolated with fats removed. The isolated intestine was flushed with cold PBS to remove the luminal contents. Then, the intestine was opened longitudinally and washed three times with PBS gently. The tissue was cut into small fragments (2 mm^2) and further washed three times with cold PBS gently, followed by incubation with 5 mmol/L EDTA-PBS at 4°C. After 40 min, the fragments were vortexed vigorously, and then the suspension was filtered through a […] and centrifuged at 50 g for 10 min. The crypts were counted and plated with Matrigel (1:1, 25 μL) and 500 μL IntestiCult Organoid Growth Medium with Supplements 1 and 2. The isolated crypts were cultured for 3–5 days and treated with indicated chemicals as described.\nas §1, with “group. […]” for “group.”"}, "[3]": {"tested_on": "Pxr, Vdr and Nr1i3 target gene expression in organoids", "experiment": "PXR, VDR and CAR downstream gene expression in organoids", "assay_type": "cell-based, mouse", "conditions": "24 h", "source_text": "as §2\nas §1, with “The primer sequences for RT-qPCR are shown in Supplementary Table S5.” left out\nSupplementary Figure S7 Selectivity of DC646. […] Data are presented as the mean ± SEM and analyzed by unpaired t-test."}, "[4]": {"conditions": "DC646 10 mg/kg, GUDCA 50 mg/kg, OCA 30 mg/kg"}}, "data": [{"smiles": "CC(C)C[C@@H]1NC(=O)[C@@H]2CN(CCO2)c2cccc3c2c(cn3[Si](C(C)C)(C(C)C)C(C)C)C[C@H](NS(=O)(=O)C(F)(F)F)C(=O)OCCCCNC(=O)[C@H](CC(C)C)NC(=O)[C@@H]2CN(CCO2)c2cccc3c2c(cn3[Si](C(C)C)(C(C)C)C(C)C)C[C@H](NS(=O)(=O)C(F)(F)F)C(=O)OCCCCNC1=O", "note": "[DC646, N,N'-((1^2R,1^4S,16^2R,16^4S,4R,13R,19R,28R)-13,28-diisobutyl-5,12,15,20,27,30-hexaoxo-2^1,17^1-bis(triisopropylsilyl)-2^1H,17^1H-6,21-dioxa-11,14,26,29-tetraaza-1(4,2),16(2,4)-dimorpholina-2,17(4,3)-diindolacyclotriacontaphane-4,19-diyl)bis(1,1,1-trifluoromethanesulfonamide)]", "values": [{"measurement": "Disruption of hFXRα-LBD-NcoR2 interaction induced by Ivermectin", "setting": "[1]", "result": "competitively disrupted"}, {"measurement": "F4/80 staining, macrophage infiltration in the liver", "setting": "MCD diet-induced MASH; DC646 10 mg/kg", "result": "good efficacy in reducing macrophage infiltration"}, {"measurement": "Hepatic FXR signaling in MASH mice", "setting": "MCD diet-induced MASH; DC646 10 mg/kg", "result": "without affecting"}, {"measurement": "Hepatic triglyceride (TG) levels", "setting": "MCD diet-induced MASH; DC646 10 mg/kg", "result": "markedly reduced"}, {"measurement": "Intestinal FXR signaling in MASH mice", "setting": "MCD diet-induced MASH; DC646 10 mg/kg", "result": "selectively inhibited"}, {"measurement": "NAFLD activity scoring (NAS)", "setting": "MCD diet-induced MASH; DC646 10 mg/kg", "result": "alleviating MASH pathologies"}, {"measurement": "Hepatic mRNA levels of inflammation-related genes", "setting": "MCD diet-induced MASH; DC646 10 mg/kg, GUDCA 50 mg/kg", "result": "notable reduction"}, {"measurement": "Hepatic mRNA levels of lipid metabolism-related genes / hepatic lipid accumulation", "setting": "MCD diet-induced MASH; [4]", "result": "reduce the mRNA levels"}, {"measurement": "Serum alanine aminotransferase (ALT) level", "setting": "MCD diet-induced MASH; [4]", "result": "significantly lowered"}, {"measurement": "H&E and Oil Red O staining, lipid droplets", "setting": "MCD diet-induced MASH; versus vehicle-, GUDCA- and OCA-treated groups", "result": "fewer lipid droplets"}, {"measurement": "mRNA expression of GW4064-induced FXR target gene Shp", "setting": "[2]; Fxr^△IE organoids", "result": "not observed"}, {"measurement": "mRNA expression of GW4064-induced FXR target gene Shp", "setting": "[2]; WT organoids", "result": "effectively reversed"}, {"measurement": "Pxr, Vdr and Nr1i3 target gene expression", "setting": "[3]", "result": "no significant impact"}]}]}
